Measured values reported in paper PMC7732531 (Frontiers in Pharmacology, 2020).
Read-outs that look alike come from different tables or passages of the source.

Key:
[1] = rat, microsomes, 0 h, 1 μM, pH 7.4
[2] = Bioavailability study in rats (i.v. and p.o.); type: in vivo; conditions: male, rat, plasma; for MRT last: read-out: MRT(0–t)
Procedure: Male SD rats (200-240 g) were obtained from Beijing Vital River Laboratory Animal Technology Co., Ltd. Animals were housed in a temperature- and humidity-controlled room with a 12 h light/dark cycle. They were fasted 12 h before the experiments and had ad libitum access to water. The animal experiments were conducted in the Beijing Center for Drug Safety Evaluation and according to a protocol (IACUC-DWZX-2020-691) approved by the Institutional Animal Care and Use Committee of the Center, which followed the guidelines of the Association for Assessment and Accreditation of Laboratory Animal Care International (AAALAC). […] Pharmacokinetic parameters were calculated by the noncompartmental method using WinNonlin 7.0 (Pharsight, CA). The area under the plasma concentration time curve (AUC) from time 0 to the last time point with a measurable concentration (AUC0-t) was calculated by trapezoidal method. Bioavailability (%F) was calculated as the ratio of the mean dose-normalized AUC values for oral and intravenous dosed groups [Fp.o. = […].)]. In vivo plasma clearance and volume of distribution were archived from the pharmacokinetic study via i.v. injection.

[3] = human, microsomes, 0 h, 1 μM, pH 7.4

CCN(Cc1ccccn1)C(=O)Cc1c(-c2ccc(Cl)c(Cl)c2)nc2cc(C)ccn12 [YL-IPA08]
percent of remaining [1]: 100.00% | AUC(0-inf) ([2]; SD, iv, i.v. 0.3 mg/kg): 71.3 ± 12.3 ng·h/mL | AUC(0-t) ([2]; SD, iv, i.v. 0.3 mg/kg): 70.6 ± 12.2 ng·h/mL | clearance ([2]; SD, iv, i.v. 0.3 mg/kg): 71.7 ± 11.5 mL/min/kg | half-life ([2]; SD, iv, i.v. 0.3 mg/kg): 1.13 ± 0.07 h | concentration at 0.033 h ([2]; SD, iv, i.v. 0.3 mg/kg, 0.033 h): 220 ± 32.5 ng/mL | concentration at 0.083 h ([2]; SD, iv, i.v. 0.3 mg/kg): 140 ± 36.2 ng/mL | concentration at 0.25 h ([2]; SD, iv, i.v. 0.3 mg/kg): 38.9 ± 5.41 ng/mL | concentration at 0.5 h ([2]; SD, iv, i.v. 0.3 mg/kg): 18.2 ± 1.29 ng/mL | concentration at 1 h ([2]; SD, iv, i.v. 0.3 mg/kg): 8.44 ± 1.06 ng/mL | concentration at 2 h ([2]; SD, iv, i.v. 0.3 mg/kg): 4.3 ± 0.57 ng/mL | concentration at 4 h ([2]; SD, iv, i.v. 0.3 mg/kg): 1.84 ± 0.39 ng/mL | concentration at 6 h ([2]; SD, iv, i.v. 0.3 mg/kg): 1.09 ± 0.22 ng/mL | concentration at 8 h ([2]; SD, iv, i.v. 0.3 mg/kg): 0.81 ± 0.08 ng/mL | concentration at 12 h ([2]; SD, iv, i.v. 0.3 mg/kg): 0.48 ± 0.06 ng/mL | MRT last ([2]; SD, iv, i.v. 0.3 mg/kg): 1.36 ± 0.11 h | Vd ([2]; SD, iv, i.v. 0.3 mg/kg, read-out: Vz): 6.98 ± 0.74 L/kg | AUC(0-inf) ([2]; SD, po, p.o. 1 mg/kg): 13.6 ± 4.37 ng·h/mL | AUC(0-t) ([2]; SD, po, p.o. 1 mg/kg): 12.5 ± 3.88 ng·h/mL | Cmax ([2]; SD, po, p.o. 1 mg/kg): 5.99 ± 1.36 ng/mL | Tmax ([2]; SD, po, p.o. 1 mg/kg): 3 ± 1.8 min | half-life ([2]; SD, po, p.o. 1 mg/kg): 1.66 ± 0.68 h | concentration at 0.083 h ([2]; SD, po, p.o. 1 mg/kg): 5.43 ± 1.96 ng/mL | concentration at 0.25 h ([2]; SD, po, p.o. 1 mg/kg): 5.22 ± 0.65 ng/mL | concentration at 0.5 h ([2]; SD, po, p.o. 1 mg/kg): 3.71 ± 0.79 ng/mL | concentration at 1 h ([2]; SD, po, p.o. 1 mg/kg): 3 ± 0.8 ng/mL | concentration at 2 h ([2]; SD, po, p.o. 1 mg/kg): 1.65 ± 0.44 ng/mL | concentration at 4 h ([2]; SD, po, p.o. 1 mg/kg): 1.02 ± 0.55 ng/mL | concentration at 6 h ([2]; SD, po, p.o. 1 mg/kg): 0.63 ± 0.31 ng/mL | concentration at 8 h ([2]; SD, po, p.o. 1 mg/kg): 0.63 ± 0.25 ng/mL | concentration at 12 h ([2]; SD, po, p.o. 1 mg/kg): 0.56 ± 0.27 ng/mL | MRT last ([2]; SD, po, p.o. 1 mg/kg): 3.35 ± 1.27 h | AUC(0-inf) ([2]; SD, po, p.o. 3 mg/kg): 39.9 ± 9.81 ng·h/mL | AUC(0-t) ([2]; SD, po, p.o. 3 mg/kg): 36.9 ± 9.57 ng·h/mL | Cmax ([2]; SD, po, p.o. 3 mg/kg): 19.2 ± 16.4 ng/mL | Tmax ([2]; SD, po, p.o. 3 mg/kg): 9 ± 10.2 min | half-life ([2]; SD, po, p.o. 3 mg/kg): 2.47 ± 1.54 h | concentration at 0.083 h ([2]; SD, po, p.o. 3 mg/kg): 18.9 ± 16.6 ng/mL | concentration at 0.25 h ([2]; SD, po, p.o. 3 mg/kg): 9.25 ± 4.57 ng/mL | concentration at 0.5 h ([2]; SD, po, p.o. 3 mg/kg): 7.42 ± 3.58 ng/mL | concentration at 1 h ([2]; SD, po, p.o. 3 mg/kg): 6.3 ± 3.02 ng/mL | concentration at 2 h ([2]; SD, po, p.o. 3 mg/kg): 4.07 ± 0.73 ng/mL | concentration at 4 h ([2]; SD, po, p.o. 3 mg/kg): 3.5 ± 0.73 ng/mL | concentration at 6 h ([2]; SD, po, p.o. 3 mg/kg): 2.35 ± 0.96 ng/mL | concentration at 8 h ([2]; SD, po, p.o. 3 mg/kg): 1.95 ± 0.51 ng/mL | concentration at 12 h ([2]; SD, po, p.o. 3 mg/kg): 0.84 ± 0.26 ng/mL | MRT last ([2]; SD, po, p.o. 3 mg/kg): 4.61 ± 1.49 h | AUC(0-inf) ([2]; SD, po, p.o. 10 mg/kg): 107 ± 30.2 ng·h/mL | AUC(0-t) ([2]; SD, po, p.o. 10 mg/kg): 104 ± 29.4 ng·h/mL | Cmax ([2]; SD, po, p.o. 10 mg/kg): 60.9 ± 44.9 ng/mL | Tmax ([2]; SD, po, p.o. 10 mg/kg): 9 ± 10.2 min | half-life ([2]; SD, po, p.o. 10 mg/kg): 2.31 ± 1.32 h | concentration at 0.083 h ([2]; SD, po, p.o. 10 mg/kg): 60.7 ± 45.1 ng/mL | concentration at 0.25 h ([2]; SD, po, p.o. 10 mg/kg): 20.5 ± 8.3 ng/mL | concentration at 0.5 h ([2]; SD, po, p.o. 10 mg/kg): 15.9 ± 4.1 ng/mL | concentration at 1 h ([2]; SD, po, p.o. 10 mg/kg): 10.2 ± 3.5 ng/mL | concentration at 2 h ([2]; SD, po, p.o. 10 mg/kg): 7.1 ± 2.7 ng/mL | concentration at 4 h ([2]; SD, po, p.o. 10 mg/kg): 5.63 ± 2.23 ng/mL | concentration at 6 h ([2]; SD, po, p.o. 10 mg/kg): 4.39 ± 2.71 ng/mL | concentration at 8 h ([2]; SD, po, p.o. 10 mg/kg): 3.61 ± 2.13 ng/mL | concentration at 12 h ([2]; SD, po, p.o. 10 mg/kg): 3.18 ± 1.43 ng/mL | concentration at 24 h ([2]; SD, po, p.o. 10 mg/kg, 24 h): 1.04 ± 0.66 ng/mL | MRT last ([2]; SD, po, p.o. 10 mg/kg): 7.73 ± 2.79 h | bioavailability ([2]; SD, po, printed in the p.o. 3 mg/kg column, read-out: F): 5.59% | bioavailability ([2]; Sprague-Dawley (SD), oral administration (1–10 mg/kg), read-out: bioavailability): ~6% | percent of remaining [3]: 100.00%
